One data set is described as follows: Blood:plasma ratio. It is filed as in vitro ADME. The settings on record: human, fresh whole blood and plasma.
A further data set addresses T1, CYP1A2 (Homo sapiens, UniProt P05177).
T1 sequence (P05177 1-516): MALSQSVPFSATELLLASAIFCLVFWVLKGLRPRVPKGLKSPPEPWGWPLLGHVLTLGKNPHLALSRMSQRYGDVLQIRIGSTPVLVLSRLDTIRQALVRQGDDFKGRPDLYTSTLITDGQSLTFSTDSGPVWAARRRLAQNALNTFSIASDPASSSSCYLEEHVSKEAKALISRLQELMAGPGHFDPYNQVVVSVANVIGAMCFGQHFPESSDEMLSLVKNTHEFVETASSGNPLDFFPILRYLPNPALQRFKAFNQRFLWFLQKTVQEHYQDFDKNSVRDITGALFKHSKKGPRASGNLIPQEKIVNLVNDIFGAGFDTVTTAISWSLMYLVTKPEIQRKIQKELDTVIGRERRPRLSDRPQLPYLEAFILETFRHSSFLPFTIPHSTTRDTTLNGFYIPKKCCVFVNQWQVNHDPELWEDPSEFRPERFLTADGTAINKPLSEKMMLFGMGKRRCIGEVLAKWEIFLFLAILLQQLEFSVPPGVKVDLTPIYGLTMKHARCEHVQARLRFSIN
Briefly: CYP phenotyping. Particulars: CYP1A2 bactosomes, 1 µM DMT fumarate.

The next data set has as its target T2, CYP2C8 (Homo sapiens, UniProt P10632).
T2 sequence (P10632 1-490): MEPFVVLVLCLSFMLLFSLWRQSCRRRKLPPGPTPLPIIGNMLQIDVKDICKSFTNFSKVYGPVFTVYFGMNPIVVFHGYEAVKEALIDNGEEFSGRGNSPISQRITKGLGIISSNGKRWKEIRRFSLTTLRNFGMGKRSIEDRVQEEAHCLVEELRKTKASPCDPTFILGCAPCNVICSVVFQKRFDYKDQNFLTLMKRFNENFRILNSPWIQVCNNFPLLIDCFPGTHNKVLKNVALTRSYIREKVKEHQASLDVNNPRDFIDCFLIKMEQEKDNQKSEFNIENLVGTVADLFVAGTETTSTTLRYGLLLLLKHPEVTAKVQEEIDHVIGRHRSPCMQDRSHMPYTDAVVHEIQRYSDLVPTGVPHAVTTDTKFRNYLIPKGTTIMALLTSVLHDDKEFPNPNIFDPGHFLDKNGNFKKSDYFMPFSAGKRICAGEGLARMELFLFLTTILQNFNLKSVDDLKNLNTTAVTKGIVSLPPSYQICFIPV
As to the kind of experiment: CYP phenotyping. The settings on record: CYP2C8 bactosomes, 1 µM DMT fumarate.

A further data set relates to MAO-A. As to the kind of experiment: Metabolic stability in human liver mitochondrial fraction. It is filed as in vitro ADME. Particulars: both, liver mitochondrial fractions, with clorgyline 100 nM.
The target in another data set is CYP2D6 (Homo sapiens, UniProt P10635). As to the kind of experiment: CYP phenotyping. The settings on record: CYP2D6 bactosomes, 1 µM DMT fumarate.
Another data set deals with CYP3A4 (Homo sapiens, UniProt P08684). Briefly: CYP phenotyping. Particulars: CYP3A4 bactosomes, 1 µM DMT fumarate.
The target of another data set is CYP2C19 (Homo sapiens, UniProt P33261). As to the kind of experiment: CYP phenotyping. Particulars: CYP2C19 bactosomes, 1 µM DMT fumarate.
The next data set concerns healthy subjects. Briefly: Phase I clinical safety and tolerability. It is filed as in vivo, human. Particulars: all four doses, 9–21.5 mg IV.
A further data set is described as follows: Plasma protein binding. Particulars: plasma protein binding result.
The target in the next data set is T3, CYP2B6 (Homo sapiens, UniProt P20813).
T3 sequence (P20813 1-491): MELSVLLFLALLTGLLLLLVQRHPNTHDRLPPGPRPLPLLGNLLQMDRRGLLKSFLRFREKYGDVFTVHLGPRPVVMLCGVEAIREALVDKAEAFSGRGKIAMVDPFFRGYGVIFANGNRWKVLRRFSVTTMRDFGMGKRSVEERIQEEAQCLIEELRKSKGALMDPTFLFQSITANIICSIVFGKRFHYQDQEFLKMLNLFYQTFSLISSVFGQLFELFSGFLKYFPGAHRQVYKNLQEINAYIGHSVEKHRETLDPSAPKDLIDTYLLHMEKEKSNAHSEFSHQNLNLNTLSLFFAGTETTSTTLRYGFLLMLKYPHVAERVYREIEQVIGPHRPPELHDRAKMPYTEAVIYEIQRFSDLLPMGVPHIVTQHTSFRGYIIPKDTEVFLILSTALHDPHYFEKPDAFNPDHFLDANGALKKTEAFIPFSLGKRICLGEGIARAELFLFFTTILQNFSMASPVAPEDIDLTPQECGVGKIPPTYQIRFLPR
Briefly: CYP phenotyping. The settings on record: CYP2B6 bactosomes, 1 µM DMT fumarate.

For data set [1] the following is noted: bolus IV administration, healthy volunteers; cited from earlier work.
The target in a further data set is CYP2C9 (Homo sapiens, UniProt P11712). Briefly: CYP phenotyping. Particulars: CYP2C9 bactosomes, 1 µM DMT fumarate.
The target in a further data set is CYP3A5 (Homo sapiens, UniProt P20815). Briefly: CYP phenotyping. The settings on record: CYP3A5 bactosomes, 1 µM DMT fumarate.
Another data set can be described thus: physchem. Particulars: pH 7.4. It is filed as physicochemical.
The format of data set [2] is in vivo, human.

The text below walks through data of publication PMC10122081 (European Journal of Drug Metabolism and Pharmacokinetics, 2023).

Several values for one entry are separate records, joined by “and”; a condition that tells them apart may be missing. Equal values may be shown once.

Sequence of CYP2C9 (P11712 whole entry): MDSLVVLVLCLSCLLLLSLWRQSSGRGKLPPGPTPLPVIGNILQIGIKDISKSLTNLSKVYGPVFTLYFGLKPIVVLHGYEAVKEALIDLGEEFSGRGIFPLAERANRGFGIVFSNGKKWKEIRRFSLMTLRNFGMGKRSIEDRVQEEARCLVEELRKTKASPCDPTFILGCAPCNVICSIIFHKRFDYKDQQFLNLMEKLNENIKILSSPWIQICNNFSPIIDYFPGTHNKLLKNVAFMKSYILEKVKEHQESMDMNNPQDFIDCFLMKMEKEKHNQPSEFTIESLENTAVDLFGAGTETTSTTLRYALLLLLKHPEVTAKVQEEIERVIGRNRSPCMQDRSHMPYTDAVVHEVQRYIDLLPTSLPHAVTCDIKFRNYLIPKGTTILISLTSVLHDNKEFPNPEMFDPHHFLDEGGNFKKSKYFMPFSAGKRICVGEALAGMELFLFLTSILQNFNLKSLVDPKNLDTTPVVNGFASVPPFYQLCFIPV
Sequence of CYP2C19 (P33261 whole entry): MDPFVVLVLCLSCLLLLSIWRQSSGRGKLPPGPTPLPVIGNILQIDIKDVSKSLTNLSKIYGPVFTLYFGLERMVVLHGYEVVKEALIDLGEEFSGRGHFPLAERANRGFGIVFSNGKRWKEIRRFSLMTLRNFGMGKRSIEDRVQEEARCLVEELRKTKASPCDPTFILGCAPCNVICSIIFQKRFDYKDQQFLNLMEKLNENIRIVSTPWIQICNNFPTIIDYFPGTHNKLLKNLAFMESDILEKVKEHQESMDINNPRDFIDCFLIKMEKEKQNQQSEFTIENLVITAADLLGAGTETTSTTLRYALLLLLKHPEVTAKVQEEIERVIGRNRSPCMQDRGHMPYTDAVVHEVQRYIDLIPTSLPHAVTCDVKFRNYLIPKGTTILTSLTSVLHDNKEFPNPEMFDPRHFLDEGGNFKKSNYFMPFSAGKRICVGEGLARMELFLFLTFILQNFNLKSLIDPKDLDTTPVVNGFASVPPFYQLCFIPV
Sequence of CYP3A4 (P08684 whole entry): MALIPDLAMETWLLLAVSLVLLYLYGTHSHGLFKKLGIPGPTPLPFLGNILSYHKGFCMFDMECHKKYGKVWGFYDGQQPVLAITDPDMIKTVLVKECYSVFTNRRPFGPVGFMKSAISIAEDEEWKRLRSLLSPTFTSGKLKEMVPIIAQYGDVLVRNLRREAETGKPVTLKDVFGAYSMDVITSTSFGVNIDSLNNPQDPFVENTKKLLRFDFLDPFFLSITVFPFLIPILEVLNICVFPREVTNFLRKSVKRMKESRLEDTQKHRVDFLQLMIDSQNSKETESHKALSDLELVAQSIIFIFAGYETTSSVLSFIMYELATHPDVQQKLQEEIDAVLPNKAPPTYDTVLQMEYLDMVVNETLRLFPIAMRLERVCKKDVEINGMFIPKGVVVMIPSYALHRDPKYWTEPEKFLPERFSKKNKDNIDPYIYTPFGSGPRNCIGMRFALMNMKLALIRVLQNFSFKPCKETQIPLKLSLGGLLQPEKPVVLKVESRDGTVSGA
Sequence of CYP2D6 (P10635 whole entry): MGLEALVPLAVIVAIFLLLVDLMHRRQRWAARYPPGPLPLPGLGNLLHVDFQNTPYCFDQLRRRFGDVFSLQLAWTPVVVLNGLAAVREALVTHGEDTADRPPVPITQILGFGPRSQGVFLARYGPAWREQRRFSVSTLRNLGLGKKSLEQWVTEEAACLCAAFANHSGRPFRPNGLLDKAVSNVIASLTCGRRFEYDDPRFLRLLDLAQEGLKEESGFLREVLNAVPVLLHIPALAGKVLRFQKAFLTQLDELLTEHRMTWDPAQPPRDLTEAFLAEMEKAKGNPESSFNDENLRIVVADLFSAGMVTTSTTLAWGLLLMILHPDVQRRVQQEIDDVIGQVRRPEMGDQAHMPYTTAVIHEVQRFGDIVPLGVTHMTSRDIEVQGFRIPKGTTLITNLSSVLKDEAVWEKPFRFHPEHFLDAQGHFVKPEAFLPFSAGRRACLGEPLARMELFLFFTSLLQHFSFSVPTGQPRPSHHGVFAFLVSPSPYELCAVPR
Sequence of CYP3A5 (P20815 whole entry): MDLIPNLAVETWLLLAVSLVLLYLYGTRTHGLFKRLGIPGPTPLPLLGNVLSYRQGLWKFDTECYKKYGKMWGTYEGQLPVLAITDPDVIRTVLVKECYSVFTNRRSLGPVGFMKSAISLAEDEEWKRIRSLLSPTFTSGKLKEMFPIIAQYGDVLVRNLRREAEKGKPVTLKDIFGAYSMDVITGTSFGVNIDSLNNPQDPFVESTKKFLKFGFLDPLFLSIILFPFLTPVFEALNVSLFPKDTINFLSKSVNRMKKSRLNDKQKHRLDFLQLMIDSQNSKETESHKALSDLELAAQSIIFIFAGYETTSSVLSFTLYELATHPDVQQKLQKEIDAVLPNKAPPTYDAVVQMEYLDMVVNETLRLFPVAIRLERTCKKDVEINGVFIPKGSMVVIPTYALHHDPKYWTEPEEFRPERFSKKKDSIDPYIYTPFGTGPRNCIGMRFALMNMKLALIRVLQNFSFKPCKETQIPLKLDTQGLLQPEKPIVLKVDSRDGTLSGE

As for `CN(C)CCc1c[nH]c2ccccc12` [DMT, N,N-dimethyltryptamine], in “Blood:plasma ratio”, the blood plasma ratio at 30 min, 1 µM was determined as 1.53. For the same molecule, the “Intrinsic clearance (no turnover detected)” value on CYP1A2, on CYP2C8, at CYP3A4, on CYP2B6, at CYP2C9 and on CYP3A5 was less than 29 µl/min/nmol CYP throughout. The intrinsic clearance (microsomal CLint) at 3.1 µM in the data set with MAO-A is less than 3.9 µL/min/mg. Further, the Intrinsic clearance on CYP2D6 is on record as 801 µl/min/nmol CYP; on CYP2C19 it was 37 µl/min/nmol CYP. Besides, in the data set with healthy subjects, the Safety and tolerability result is “safe and well tolerated”. In the data set with healthy subjects, the Serious adverse events result is “no serious AEs”. In addition, the “Unbound in human plasma” value in “Plasma protein binding” is > 65% and 67.7%. For the same molecule, the “Time to peak blood concentrations” value in [1] is “approximately 2 min”. The pH-dependent lipophilicity (logD) in “physchem” came out at 0.15. Also, the “Mean measured concentrations of DMT at the 120 min and 240 min time points” value in [2] (all cohorts) was less than 0.1 ng/mL. The concentration at 5 min in data set [2] (human, plasma, intravenous, 6 mg, Individual C5min, following a 6 mg dose over 5 min, across all dose cohorts) lay in the range of 3.32 to 43 ng/mL. Also, in data set [2] (human, plasma, iv, Mean elimination half-life (plasma), all doses, 9–21.5 mg IV 10-min infusion), the half-life fell in the range of 10 to 12 min.

As usually defined, the microsomal CLint is the rate of metabolic loss divided by the concentration. The low end stands for greater metabolic stability, the high end for faster metabolism. As usually defined, the logD is the decadic logarithm of the distribution of all forms, ionised or not, between an organic phase and buffer at a given pH. Lower therefore signals a more hydrophilic compound. What is called half-life is how long it takes for the measured level to halve. Low values mean rapid decline, high ones slow decline.
